According to US6455540B1, “Methods of use of quinolone compounds against anaerobic pathogenic bacteria” (priority 1999, dated 2002):
In brackets after ≈: the same amount, converted by molar mass.

Key:
Test in all cases: Agar dilution MIC
Prevotella bivia = assay type: cell-based; details: Prevotella bivia, 21 isolates
[1] = tested on: Peptostreptococcus micros; assay type: cell-based; details: 12 isolates
[2] = tested on: Porphyromonas asaccharolyticus; assay type: cell-based, Porphyromonas asaccharolytica; details: 11 isolates
[3] = tested on: Prevotella heparinolytica; assay type: cell-based; details: 16 isolates
[4] = tested on: Peptostreptococcus magnus; assay type: cell-based; details: Finegoldia magna, 13 isolates
Porphyromonas spp. = assay type: cell-based, Porphyromonas cangingivalis, cansulci, circumdentaria, levii; details: Porphyromonas, 11 isolates
[5] = tested on: Fusobacterium spp. group 2; assay type: cell-based, Fusobacterium mortiferum, necrogenes, ulcerans; details: Fusobacterium, 12 isolates
[6] = tested on: Clostridium clostridioforme; assay type: cell-based; details: Clostridium, 11 isolates
Clostridium ramosum = assay type: cell-based; details: Thomasclavelia ramosa, 10 isolates
Bacteroides gracilis = assay type: cell-based, Bacteroides gracilis (Campylobacter gracilis); details: Campylobacter gracilis, 11 isolates
[7] = tested on: Anaerobiospirillum succiniciproducens; assay type: cell-based; details: 3 isolates
[8] = tested on: Peptostreptococcus asaccharolyticus; assay type: cell-based; details: Peptoniphilus asaccharolyticus, 11 isolates
[9] = tested on: Actinomyces odontolyticus; assay type: cell-based; details: Schaalia odontolytica, 10 isolates
Bacteroides ureolyticus = assay type: cell-based; details: Campylobacter ureolyticus, 17 isolates
Bilophila wadsworthia = assay type: cell-based; details: 16 isolates, agar supplemented with pyruvate
Clostridium inocuum = assay type: cell-based, Clostridium innocuum; details: Clostridium, 11 isolates
Porphyromonas macaccae = assay type: cell-based; details: 13 isolates
[10] = tested on: Anaerobiospirillum thomasii; assay type: cell-based; details: 13 isolates
Actinomyces israelii = assay type: cell-based; details: 6 isolates
[11] = tested on: Prevotella denticola/loeschii group; assay type: cell-based; details: Prevotella denticola, read-out: Minimal Inhibitory Concentration 50% (MIC50); 6 isolates
[12] = tested on: Prevotella buccae-oris group; assay type: cell-based; details: 22 isolates
[13] = tested on: Peptostreptococcus prevotii; assay type: cell-based; details: Anaerococcus prevotii, read-out: Minimal Inhibitory Concentration 50% (MIC50); 9 isolates
Fusobacterium russii = assay type: cell-based; details: Fusobacterium russii
Porphyromonas canoris = assay type: cell-based; details: 10 isolates
Clostridium dfficile = assay type: cell-based, Clostridium difficile; details: Clostridium
[14] = tested on: Prevotella melaninogenica; assay type: cell-based; details: 12 isolates
Fusobacterium varium = assay type: cell-based; details: Fusobacterium varium, 17 isolates
Prevotella intermedia = assay type: cell-based; details: 11 isolates
Bacteroides tectum = assay type: cell-based; details: 22 isolates
[15] = tested on: Fusobacterium spp group 1; assay type: cell-based; details: Fusobacterium, 19 isolates
Porphyromonas gingivalis = assay type: cell-based; details: 13 isolates
Veillonella spp. = assay type: cell-based; details: Veillonella, 24 isolates
[16] = read-out: Minimal Inhibitory Concentration 90% (MIC90)
[17] = read-out: Minimal Inhibitory Concentration 50% (MIC50)
[18] = Porphyromonas, read-out: Minimal Inhibitory Concentration 50% (MIC50)
[19] = Porphyromonas, read-out: Minimal Inhibitory Concentration 90% (MIC90)

For `CC[C@H]1OC(=O)[C@H](C)[C@@H](O[C@H]2C[C@@](C)(OC)[C@@H](O)[C@H](C)O2)[C@H](C)[C@@H](O[C@@H]2O[C@H](C)C[C@H](N(C)C)[C@H]2O)[C@](C)(O)C[C@@H](C)C(=O)[C@H](C)[C@@H](O)[C@]1(C)O` [Erythromycin], the MIC90 (Prevotella bivia; [16]) was 2 µg/mL (≈ 2.73 µM), the MIC50 (Prevotella bivia; [17]) was 1 µg/mL (≈ 1.36 µM) and the “Minimal Inhibitory Concentration Range” value [1] was 0.5 to 1 µg/mL. The MIC50 ([1]; Parvimonas micra, read-out: Minimal Inhibitory Concentration 50% (MIC50)) was 0.5 µg/mL (≈ 0.681 µM), the MIC90 ([1]; Parvimonas micra, read-out: Minimal Inhibitory Concentration 90% (MIC90)) was 0.5 µg/mL (≈ 0.681 µM) and the “Minimal Inhibitory Concentration Range” value [2] was 0.03 to 32 µg/mL. The MIC50 [2, 18] was 0.03 µg/mL (≈ 0.0409 µM), the MIC90 [2, 19] was 32 µg/mL (≈ 43.6 µM) and the “Minimal Inhibitory Concentration Range” value [3] was 0.25 to 0.5 µg/mL. It also gave an MIC90 ([3]; Prevotella heparinolytica, read-out: Minimal Inhibitory Concentration 90% (MIC90)) of 0.25 µg/mL (≈ 0.341 µM), an MIC50 ([3]; Prevotella heparinolytica, read-out: Minimal Inhibitory Concentration 50% (MIC50)) of 0.25 µg/mL (≈ 0.341 µM) and an MIC50 [4, 17] of 4 µg/mL (≈ 5.45 µM). For the same compound, the MIC90 [4, 16] was > 32 µg/mL, the MIC50 (Porphyromonas spp.; [17]) was 0.06 µg/mL (≈ 0.0818 µM) and the MIC90 (Porphyromonas spp.; [16]) was 0.06 µg/mL (≈ 0.0818 µM). For the same compound, the MIC50 [5, 17] was > 32 µg/mL, the MIC90 [5, 16] was > 32 µg/mL and the MIC90 [6, 16] was > 32 µg/mL. For the same compound, the MIC50 [6, 17] was 16 µg/mL (≈ 21.8 µM), the MIC50 (Clostridium ramosum; [17]) was 1 µg/mL (≈ 1.36 µM) and the MIC90 (Clostridium ramosum; [16]) was > 32 µg/mL. The MIC90 (Bacteroides gracilis; [16]) was 2 µg/mL (≈ 2.73 µM), the MIC50 (Bacteroides gracilis; [17]) was 1 µg/mL (≈ 1.36 µM) and the “Minimal Inhibitory Concentration Range” value [7] was 8 to 16 µg/mL. The MIC50 ([7]; Anaerobiospirillum succiniciproducens, read-out: Minimal Inhibitory Concentration 50% (MIC50)) was 16 µg/mL (≈ 21.8 µM), the MIC50 [8, 17] was 4 µg/mL (≈ 5.45 µM) and the MIC90 [8, 16] was > 32 µg/mL. For the same compound, the MIC90 [9, 16] was 0.03 µg/mL (≈ 0.0409 µM), the MIC50 [9, 17] was ≤ 0.015 µg/mL and the MIC90 (Bacteroides ureolyticus; [16]) was 2 µg/mL (≈ 2.73 µM). The MIC50 (Bacteroides ureolyticus; [17]) was 0.025 µg/mL (≈ 0.0341 µM), the “Minimal Inhibitory Concentration Range” value (Bilophila wadsworthia) was 4 to 32 µg/mL and the MIC90 (Bilophila wadsworthia; Bilophila wadsworthia, read-out: Minimal Inhibitory Concentration 90% (MIC90)) was 32 µg/mL (≈ 43.6 µM). The MIC50 (Bilophila wadsworthia; Bilophila wadsworthia, read-out: Minimal Inhibitory Concentration 50% (MIC50)) was 16 µg/mL (≈ 21.8 µM), the MIC90 (Clostridium inocuum; [16]) was > 32 µg/mL and the MIC50 (Clostridium inocuum; [17]) was > 32 µg/mL. For the same compound, the “Minimal Inhibitory Concentration Range” value (Porphyromonas macaccae) was 0.06 to 0.25 µg/mL, the MIC50 (Porphyromonas macaccae; [18]) was 0.125 µg/mL (≈ 0.17 µM) and the MIC90 (Porphyromonas macaccae; [19]) was 0.25 µg/mL (≈ 0.341 µM). The “Minimal Inhibitory Concentration Range” value [10] was 1 to 16 µg/mL, the MIC50 ([10]; Anaerobiospirillum thomasii, read-out: Minimal Inhibitory Concentration 50% (MIC50)) was 4 µg/mL (≈ 5.45 µM) and the MIC90 ([10]; Anaerobiospirillum thomasii, read-out: Minimal Inhibitory Concentration 90% (MIC90)) was 8 µg/mL (≈ 10.9 µM). For the same compound, the “Minimal Inhibitory Concentration Range” value (Actinomyces israelii) was 0.03 µg/mL, the MIC50 (Actinomyces israelii; Actinomyces israelii, read-out: Minimal Inhibitory Concentration 50% (MIC50)) was 0.03 µg/mL (≈ 0.0409 µM) and the MIC50 [11] was 0.25 µg/mL (≈ 0.341 µM). The “Minimal Inhibitory Concentration Range” value [12] was 0.5 to 8 µg/mL, the MIC90 ([12]; Prevotella, read-out: Minimal Inhibitory Concentration 90% (MIC90)) was 2 µg/mL (≈ 2.73 µM) and the MIC50 ([12]; Prevotella, read-out: Minimal Inhibitory Concentration 50% (MIC50)) was 1 µg/mL (≈ 1.36 µM). The MIC50 [13] was > 32 µg/mL, the MIC50 (Fusobacterium russii; [17]) was 4 µg/mL (≈ 5.45 µM) and the MIC90 (Fusobacterium russii; [16]) was > 32 µg/mL. For the same compound, the “Minimal Inhibitory Concentration Range” value (Porphyromonas canoris) was 0.03 to 0.25 µg/mL, the MIC50 (Porphyromonas canoris; Porphyromonas canoris, read-out: Minimal Inhibitory Concentration 50% (MIC50)) was 0.06 µg/mL (≈ 0.0818 µM) and the MIC90 (Porphyromonas canoris; Porphyromonas canoris, read-out: Minimal Inhibitory Concentration 90% (MIC90)) was 0.125 µg/mL (≈ 0.17 µM). The MIC50 (Clostridium dfficile; [17]) was 0.5 µg/mL (≈ 0.681 µM), the MIC90 (Clostridium dfficile; read-out: Minimal Inhibitory Concentration 90% (MIC90), 14 isolates) was > 32 µg/mL and the “Minimal Inhibitory Concentration Range” value [14] was 0.06 to 32 µg/mL. For the same compound, the MIC90 ([14]; Prevotella melaninogenica, read-out: Minimal Inhibitory Concentration 90% (MIC90)) was 8 µg/mL (≈ 10.9 µM), the MIC50 ([14]; Prevotella melaninogenica, read-out: Minimal Inhibitory Concentration 50% (MIC50)) was 1 µg/mL (≈ 1.36 µM) and the MIC50 (Fusobacterium varium; [17]) was > 32 µg/mL. The MIC90 (Fusobacterium varium; [16]) was > 32 µg/mL, the “Minimal Inhibitory Concentration Range” value (Prevotella intermedia) was 0.03 to 0.5 µg/mL and the MIC90 (Prevotella intermedia; Prevotella intermedia, read-out: Minimal Inhibitory Concentration 90% (MIC90)) was 0.25 µg/mL (≈ 0.341 µM). For the same compound, the MIC50 (Prevotella intermedia; Prevotella intermedia, read-out: Minimal Inhibitory Concentration 50% (MIC50)) was 0.06 µg/mL (≈ 0.0818 µM), the “Minimal Inhibitory Concentration Range” value (Bacteroides tectum) was 0.25 to 1 µg/mL and the MIC90 (Bacteroides tectum; Bacteroides pyogenes, read-out: Minimal Inhibitory Concentration 90% (MIC90)) was 0.5 µg/mL (≈ 0.681 µM). For the same compound, the MIC50 (Bacteroides tectum; Bacteroides pyogenes, read-out: Minimal Inhibitory Concentration 50% (MIC50)) was 0.5 µg/mL (≈ 0.681 µM), the MIC50 ([15]; GROUP1, read-out: Minimal Inhibitory Concentration 50% (MIC50)) was 8 µg/mL (≈ 10.9 µM) and the MIC90 ([15]; GROUP1, read-out: Minimal Inhibitory Concentration 90% (MIC90)) was 32 µg/mL (≈ 43.6 µM). The “Minimal Inhibitory Concentration Range” value (Porphyromonas gingivalis) was 0.06 to 0.5 µg/mL, the MIC50 (Porphyromonas gingivalis; Porphyromonas gingivalis, read-out: Minimal Inhibitory Concentration 50% (MIC50)) was 0.125 µg/mL (≈ 0.17 µM) and the MIC90 (Porphyromonas gingivalis; Porphyromonas gingivalis, read-out: Minimal Inhibitory Concentration 90% (MIC90)) was 0.5 µg/mL (≈ 0.681 µM). For the same compound, the MIC90 (Veillonella spp.; [16]) was > 32 µg/mL and the MIC50 (Veillonella spp.; [17]) was 16 µg/mL (≈ 21.8 µM).
